Laboratory results reported in ChEMBL document CHEMBL3639260, “5-membered nitrogen containing heterocyclic derivatives and pharmaceutical compositions comprising the same” (2015).
pIC50: −log10 of the molar value.

Molecular target: Xanthine dehydrogenase/oxidase (Bos taurus, UniProt P80457)
Assay: Inhibition Assay: Xanthine oxidase (from bovine milk, Sigma) was prepared with phosphate-buffered saline (PBS) at 0.02 units/mL, and then the solution was added to 96 well plates at 50 μL/well. In addition, test compounds diluted with PBS were added at 50 μL/well. Xanthine (Wako) at 200 μM prepared with PBS was added at 100 μL/well, and the reaction was conducted for 10 minutes at room temperature. Absorbance at 290 nm was measured using a microplate reader SpectraMax Plus 384 (Molecular device). The absorbance under a condition without xanthine is 0%, and control without test compounds is 100%.

Xanthine dehydrogenase/oxidase, sequence (P80457 whole entry): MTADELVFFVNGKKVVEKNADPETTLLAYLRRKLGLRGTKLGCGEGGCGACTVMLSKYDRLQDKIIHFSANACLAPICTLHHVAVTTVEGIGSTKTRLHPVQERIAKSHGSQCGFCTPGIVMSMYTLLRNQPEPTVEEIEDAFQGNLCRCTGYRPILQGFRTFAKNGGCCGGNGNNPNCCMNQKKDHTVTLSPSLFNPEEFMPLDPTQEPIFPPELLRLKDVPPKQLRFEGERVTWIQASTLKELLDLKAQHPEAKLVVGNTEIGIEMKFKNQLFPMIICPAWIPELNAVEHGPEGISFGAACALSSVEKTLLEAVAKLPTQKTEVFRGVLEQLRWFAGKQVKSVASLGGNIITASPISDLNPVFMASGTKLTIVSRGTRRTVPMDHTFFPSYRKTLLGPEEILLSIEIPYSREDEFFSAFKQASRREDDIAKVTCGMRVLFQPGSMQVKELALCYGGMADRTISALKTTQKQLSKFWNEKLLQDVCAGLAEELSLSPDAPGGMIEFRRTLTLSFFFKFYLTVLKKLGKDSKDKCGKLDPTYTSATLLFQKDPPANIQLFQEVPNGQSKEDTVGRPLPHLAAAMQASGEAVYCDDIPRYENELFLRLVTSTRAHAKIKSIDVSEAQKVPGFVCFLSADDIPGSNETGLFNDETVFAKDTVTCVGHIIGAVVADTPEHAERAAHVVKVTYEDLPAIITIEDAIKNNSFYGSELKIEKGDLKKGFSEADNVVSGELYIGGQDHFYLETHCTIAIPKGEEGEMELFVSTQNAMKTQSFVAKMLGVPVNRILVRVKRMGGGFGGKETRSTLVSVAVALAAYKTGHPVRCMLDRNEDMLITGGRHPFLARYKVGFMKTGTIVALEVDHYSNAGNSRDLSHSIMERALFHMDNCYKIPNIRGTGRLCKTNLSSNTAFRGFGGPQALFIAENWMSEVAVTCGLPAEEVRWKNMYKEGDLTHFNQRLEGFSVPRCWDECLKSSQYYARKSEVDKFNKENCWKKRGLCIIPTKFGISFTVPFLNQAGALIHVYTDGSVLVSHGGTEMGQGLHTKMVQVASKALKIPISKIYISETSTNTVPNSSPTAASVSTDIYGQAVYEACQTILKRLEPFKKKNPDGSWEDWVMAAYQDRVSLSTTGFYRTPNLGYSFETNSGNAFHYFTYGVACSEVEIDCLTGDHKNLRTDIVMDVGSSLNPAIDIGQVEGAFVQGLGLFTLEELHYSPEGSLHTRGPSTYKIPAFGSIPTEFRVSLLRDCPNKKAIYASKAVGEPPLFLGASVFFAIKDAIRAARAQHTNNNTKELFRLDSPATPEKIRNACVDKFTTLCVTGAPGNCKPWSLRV

SMILES	pIC50
N#Cc1cn(-c2ccc(C(=O)O)cc2)cc1-c1ccccc1OCCOc1ccccc1	7.33
N#Cc1cn(-c2ccc(C(=O)O)cc2)cc1-c1ccc(OCCCO)cc1	7.20
